Test results reported in paper PMC5748279, “Novel Antitubercular 6-Dialkylaminopyrimidine Carboxamides from Phenotypic Whole-Cell High Throughput Screening of a SoftFocus Library: Structure–Activity Relationship and Target Identification Studies” (Journal of Medicinal Chemistry, 2017).
≈ marks a conversion by molar mass, not a printed value. Where “and” joins values, the source holds several entries; their conditions need not be identical. Equal entries are not always repeated.

What was measured:
[1] = type: in vitro ADME
Method: and ultracentrifuged for 4 hours (42000 rpm, 37 °C, Beckman Optima L,80XP). Analyte concentration of all compounds and sample types were determined by means of LC,MS/MS (Agilent Rapid Resolution HPLC, AB SCIEX 4000 QTRAP MS).
4.4) Lipophilicity (LogD7.4)
The lipophilicity assay was performed in triplicate using a shake,flask procedure. 10 mM stock solutions of each test compound were used to spike (100 µM) a 1:1 mixture of phosphate buffer (pH 7.4) and n,octanol. The solutions were shaken vigorously (1500 rpm) on an orbital shaker for 3 hours at room temperature. Thereafter the samples were centrifuged in order to fully separate the two immiscible fluids. The samples were analysed by HPLC,DAD (Agilent 1200 Rapid Resolution HPLC with a diode array detector) and the amount of compound in the buffer and n, octanol were used to determine the partition coefficient, LogD7.4.15
4.5) Parallel Artificial Membrane Permeability Assay (PAMPA):
The PAMPA assay was performed in triplicate in 96,well MultiScreen Filter plates (Millipore, 0.4 µM PCTE Membrane). Membrane filters were pre,coated with 5% hexadecane in hexane and allowed to dry prior to the assay. Membrane integrity marker, Lucifer yellow was added to the apical wells of the pre,coated MultiScreen plate donor/drug solutions containing test compound.
Phosphate buffer (pH7.4) was added to the 96,well acceptor plate. 10 mM test compound was used to spike (1 µM) the donor buffer at physiologically relevant pH's (pH 4, 6.5 and 8), the donor plate slotted into the acceptor plate and incubated (4 hours at room temperature) with gentle shaking (40,50 rpm). Following the incubation, sample from the acceptor wells and theoretical equilibrium wells were transferred to the analysis plate and matrix matched with blank donor buffer. Acetonitrile containing internal standard (carbamazepine, 0.0236 µg/mL) was added to all samples and they were analysed by LC,MS/MS (Agilent Rapid Resolution HPLC, AB SCIEX 4500 MS). The normalised (analyte/internal) peak areas were used to calculate the apparent permeability (Papp). Membrane integrity was assessed by calculating the Papp of Lucifer Yellow […]
chemosensitivity. […]. Thus only viable cells […]
formazan. Formazan crystals are dissolved in DMSO. The test samples were tested in triplicate on […]
experiment. […] Emetine was used […]
as the reference drug in all experiments. The initial concentration of emetine was 100 µg/mL, […]
lowest being 0.001 µg/mL. […] The […]
the cell viability (data not shown).
GraphPad Prism v.4 software. […]
expressing the full length hERG channel. Single cell ionic currents were measured in the […]

in vivo = conditions: male, C57/BL6, mouse
[2] = test system: PiniB-LUX reporter (Mtb cell wall biosynthesis); type: cell-based; conditions: luminescence over 7 days, INH control
[3] = Caseum binding using surrogate caseum
[4] = test system: PrecA-LUX reporter (genotoxic compounds); type: cell-based; conditions: luminescence over 7 days, CIPRO control
[5] = test system: Mycobacterium tuberculosis (H37RvMa); experiment: microbe, parasite or virus in culture; type: cell-based; conditions: for MIC: Mycobacterium tuberculosis, medium not stated; for MIC99 7H9/ADC / fold more potent in 7H9/ADC compared to 1: 7H9/ADC medium; for MIC99 GAST/Fe / fold more potent in GAST/Fe compared to 1: GAST/Fe medium; for fold more potent in 7H9/ADC compared to 1 / fold more potent in GAST/Fe compared to 1: versus compound 1
[6] = test system: Mtb::gfp strain (H37RvMa::pMSP12GFP); type: cell-based; conditions: supplementary csv; for MIC99 7H9/ADC (values marked c: GFP strain based assay): 7H9/ADC medium; for MIC99 GAST/Fe (values marked c: GFP strain based assay): GAST/Fe medium
[7] = test system: Mycobacterium tuberculosis (H37RvMa); experiment: microbe, parasite or virus in culture; set-up: MIC99 by standard broth microdilution against M. tuberculosis H37Rv; conditions: read-out: MIC99 7H9/ADC (æM)
physchem [8] = type: physicochemical
Method: (§1) The kinetic solubility assay was performed using a miniaturised shake flask method. 10 mM stock […]
(§2) DMSO, and to spike (1:50) duplicate aqueous samples of FaSSIF (simulating fasting state biorelevant media, pH 6.5), with a final DMSO concentration of 2%. After shaking for 2 hours at 25 °C, the solutions were filtered and analysed by means of HPLC,DAD (Agilent 1200 Rapid Resolution HPLC with a diode array detector). Best fit calibration curves were constructed using the calibration standards, which were used to determine the aqueous samples’ solubility.13
(§3) 4.2) Microsomal stability
(§4) The metabolic stability assay was performed in duplicate in a 96,well micro titre plate. The test compounds (0.1 µM) were incubated individually in mouse, rat and pooled human liver […]
(§5) the cofactor NADPH (1 mM). Reactions were quenched by adding 300 µL of ice cold acetonitrile containing internal standard (carbamazepine, 0.0236 µg/mL). Test compounds in the supernatant were analysed by means of LC,MS/MS (Agilent Rapid Resolution HPLC, AB SCIEX 4000 QTRAP MS) for the disappearance of parent compound. Metabolite searches were not conducted during the metabolic stability assay.14
(§6) 4.3) Plasma protein binding (PPB) assay
The plasma protein binding assay was performed in a 96,well micro titre plate with pooled human plasma, spiked with test compound (5 µM). An aliquot was immediately removed and quenched using ice cold acetonitrile containing internal standard (carbamazepine, 0.0236 µg/mL), and placed in the freezer. This served as the total concentration sample. After pre,incubation (37 °C for 1 hour) duplicate aliquots of the spiked plasma were transferred to ultra,centrifugation tubes, […]

physchem [9] = conditions: sheet table;; kinetic solubility, pH 7.4; aqueous buffer pH 7.4; Kinetic solubility at pH 7.4; read-out: Solubility (æM)
Method: as §1, §2, §3, §4, §5, §6
The plasma protein binding assay was performed in a 96,well micro titre plate with pooled human plasma, spiked with test compound (5 µM). […]

BCG_3827 (Rv3768) = type: binding, Mycobacterium bovis BCG
BCG_3193 (Rv3169) [10] = target: T1, BCG_3193 (Rv3169) (Mycobacterium bovis BCG, UniProt A0A1R3Y3B6); experiment: biochemical; set-up: species or system Mycobacterium bovis BCG extract; conditions: bead competition in BCG extract
T1 sequence (A0A1R3Y3B6 1-374): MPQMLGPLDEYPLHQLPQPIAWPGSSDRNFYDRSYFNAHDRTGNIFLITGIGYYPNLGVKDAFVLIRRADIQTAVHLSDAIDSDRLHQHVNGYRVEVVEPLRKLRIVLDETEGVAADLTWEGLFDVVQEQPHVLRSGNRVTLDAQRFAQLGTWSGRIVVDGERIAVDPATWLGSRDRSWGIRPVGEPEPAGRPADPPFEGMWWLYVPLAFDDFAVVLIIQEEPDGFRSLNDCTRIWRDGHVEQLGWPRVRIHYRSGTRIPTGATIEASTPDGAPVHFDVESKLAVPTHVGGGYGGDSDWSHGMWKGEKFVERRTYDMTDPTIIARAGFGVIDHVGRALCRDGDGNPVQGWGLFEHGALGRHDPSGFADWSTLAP

BCG_3193 (Rv3169) [11] = target: T1, BCG_3193 (Rv3169); experiment: biochemical; type: binding

In the case of `CN(Cc1ccc(C(F)(F)F)nc1)c1cc(C(=O)Nc2ccccc2)ncn1` [Compound 20, 6-(Methyl((6-(trifluoromethyl)pyridin-3-yl)methyl)amino)-N-phenylpyrimidine-4-carboxamide], the “PAMPA log Papp” value [1] is reported as “–3.8”, the AUC(0-inf) at 24 h (in vivo; iv, 5 mg/kg) is reported as 19.6 µM·h and the clearance at 24 h (in vivo; iv, 5 mg/kg) is reported as 11.2 mL/min/kg. The AUC(0-inf) at 24 h (in vivo; po, 20 mg/kg) was 33.3 µM·h.

For `CN(Cc1ccc(C(F)(F)F)cc1)c1cc(C(=O)Nc2ccccc2)ncn1` [Compound 12, 6-(Methyl(4-(trifluoromethyl)benzyl)amino)-N-phenylpyrimidine-4-carboxamide], the “PAMPA log Papp” value [1] was “–4.9”, the AUC(0-inf) at 24 h (in vivo; iv, 5 mg/kg) was 20.4 µM·h and the clearance at 24 h (in vivo; iv, 5 mg/kg) was 11.3 mL/min/kg. It also gave a half-life at 24 h (in vivo; iv, 5 mg/kg) of 4.6 h, an AUC(0-inf) at 24 h (in vivo; po, 20 mg/kg) of 22.2 µM·h and a half-life at 24 h (in vivo; po, 20 mg/kg) of 8.7 h. The PiniB-LUX reporter response [2] was “a weak, delayed response”, the caseum distribution unbound [3] was 0.1% and the PrecA-LUX reporter response [4] was “delayed (Day 3 onwards) induction of luminescence”.

`CN(Cc1ccc(F)cc1)c1cc(C(=O)Nc2ccc(N3CCOCC3)cc2)ncn1` [Compound 45, 6-((4-Fluorobenzyl)(methyl)amino)-N-(4-morpholinophenyl)pyrimidine-4-carboxamide] gave an MIC [5] of less than 5 µM.

In the case of `CN(Cc1cccnc1)c1cc(C(=O)Nc2ccccc2)ncn1` [Compound 19, 6-(Methyl(pyridin-3-ylmethyl)amino)-N-phenylpyrimidine-4-carboxamide], the “MIC99 7H9/ADC (values marked c: GFP strain based assay)” value [6] is reported as 48c æM and the “MIC99 GAST/Fe (values marked c: GFP strain based assay)” value [6] is reported as 37c æM.

Work on `O=C(Nc1ccccc1)c1cc(OCC2CCCCC2)ncn1` [compound 4] yielded an MIC99 [7] greater than 160 µM.

In the case of `CN(Cc1ccc(C(F)(F)F)cc1)c1cc(C(=O)NC2CCCCC2)ncn1` [Compound 34, N-Cyclohexyl-6-(methyl(4-(trifluoromethyl)benzyl)amino)pyrimidine-4-carboxamide], the “MIC99 7H9/ADC (values marked c: GFP strain based assay)” value [6] is reported as greater than 125c æM and the “MIC99 GAST/Fe (values marked c: GFP strain based assay)” value [6] is reported as 12c æM.

With “6-((4-Cyanobenzyl)(methyl)amino)-N-phenylpyrimidine-4-carboxamide [Compound 16]” the solubility kinetic at 2 h (physchem [8]; pH 7.4) was less than 5 µM, the Solubility (physchem [8]; supplementary csv) was <5 æM and the “MIC99 7H9/ADC” value [5] was greater than 50 µM. For the same compound, the “MIC99 7H9/ADC” value ([5]; supplementary csv) was >50 æM, the “MIC99 GAST/Fe” value [5] was 20 µM and the “MIC99 GAST/Fe” value ([5]; supplementary csv) was 20 æM.

With `CN(Cc1ccc(S(C)(=O)=O)cc1)c1cc(C(=O)Nc2ccccc2)ncn1` [Compound 17, 6-(Methyl(4-(methylsulfonyl)benzyl)amino)-N-phenylpyrimidine-4-carboxamide] the “MIC99 7H9/ADC (values marked c: GFP strain based assay)” value [6] was greater than 125c æM and the “MIC99 GAST/Fe (values marked c: GFP strain based assay)” value [6] was greater than 125c æM.

`[C-]#[N+]c1ccc(CN(C)c2cc(C(=O)Nc3ccccc3)ncn2)cc1` [compound 16] showed a solubility at 2 h (physchem [9]) of less than 5 µM and an MIC99 [7] greater than 50 µM.

In the case of `CN(Cc1ccc(Cl)cc1)c1cc(C(=O)Nc2ccccc2)ncn1` [Compound 11, 6-((4-Chlorobenzyl)(methyl)amino)-N-phenylpyrimidine-4-carboxamide], the “fold more potent in 7H9/ADC compared to 1” value [5] is reported as no less than 4 fold and the “fold more potent in GAST/Fe compared to 1” value [5] is reported as no less than 2 fold.

With `CN1CCN(c2ccc(NC(=O)c3cc(N(C)Cc4ccc(C(F)(F)F)cc4)ncn3)cc2)CC1` [Compound 40, 6-(Methyl(4-(trifluoromethyl)benzyl)amino)-N-(4-(4-methylpiperazin-1-yl)phenyl)pyrimidine-4-carboxamide] the “PAMPA log Papp” value [1] was “–4.5”, the IC50 (BCG_3827 (Rv3768)) was 10 µM and the “binding of BCG_3827 to the compound beads in presence of free compound” value (BCG_3827 (Rv3768)) was “reduced binding”. For the same compound, the Kd (BCG_3827 (Rv3768); read-out: apparent dissociation constant Kd^app for BCG_3827) was 2.1 µM and 3.8 µM, the AUC(0-inf) at 24 h (in vivo; iv, 5 mg/kg) was 9 µM·h and the half-life at 24 h (in vivo; iv, 5 mg/kg) was 10.3 h. The AUC(0-inf) at 24 h (in vivo; po, 20 mg/kg) was 9.4 µM·h, the half-life at 24 h (in vivo; po, 20 mg/kg) was 15.8 h and the IC50 (BCG_3193 (Rv3169) [10]; IC50, Experiment ID=X028553) was 1.7 µM. For the same compound, the IC50 (BCG_3193 (Rv3169) [10]; IC50, Experiment ID=X028554) was 1.5 µM, the caseum distribution unbound [3] was 0.1% and the Hill (BCG_3193 (Rv3169) [11]) was 1.62. The “binding of BCG_3193 to the compound beads in presence of free compound” value (BCG_3193 (Rv3169) [11]) was “reduced binding”, the IC50 (BCG_3193 (Rv3169) [11]; IC50) was 1.1 µM and the Kd (BCG_3193 (Rv3169) [11]; apparent dissociation constant Kd^app for BCG_3193) was 0.61 µM and 0.69 µM. For the same compound, the IC50 (BCG_3193 (Rv3169) [11]; pIC50) was 1.1 µM.

For `COc1ccc(NC(=O)c2cc(N(C)Cc3cccc(F)c3)ncn2)cc1` [Compound 13, 6-((3-Fluorobenzyl)(methyl)amino)-N-(4-methoxyphenyl)pyrimidine-4-carboxamide], the PiniB-LUX reporter response [2] was “a weak, delayed response” and the PrecA-LUX reporter response [4] was “delayed (Day 3 onwards) induction of luminescence”.

For `CN(Cc1ccc(F)cc1)c1cc(C(=O)Nc2ccccc2)ncn1` [Compound 10, 6-((4-Fluorobenzyl)(methyl)amino)-N-phenylpyrimidine-4-carboxamide], the “fold more potent in 7H9/ADC compared to 1” value [5] was no less than 4 fold and the “fold more potent in GAST/Fe compared to 1” value [5] was no less than 2 fold.

For `CN1CCN(c2cccc(NC(=O)c3cc(N(C)Cc4ccc(F)cc4)ncn3)c2)CC1` [Compound 42, 6-((4-Fluorobenzyl)(methyl)amino)-N-(3-(4-methylpiperazin-1-yl)phenyl)pyrimidine-4-carboxamide], the “MIC values dropping by fold” value ([5]; 3-position versus 4-position N-methylpiperazine) was 10- to 30 fold.

In the case of “6-(Benzyloxy)-N-phenylpyrimidine-4-carboxamide [Compound 4]”, the “MIC99 7H9/ADC” value [5] is reported as greater than 160 µM and the “MIC99 7H9/ADC” value ([5]; supplementary csv) is reported as >160 æM.

Compound `CN(Cc1ccc(C(F)(F)F)nc1)c1cc(C(=O)Nc2ccc(N3CCOCC3)cn2)ncn1` [Compound 46, 6-(Methyl((6-(trifluoromethyl)pyridin-3-yl)methyl)amino)-N-(5-morpholinopyridin-2-yl)pyrimidine-4-carboxamide] has an MIC [5] of 2 to 3 µM (≈ 0.947 to 1.42 µg/mL).

`CN(Cc1ccc(F)cc1)c1cc(C(=O)Nc2nncs2)ncn1` [Compound 51, 6-((4-Fluorobenzyl)(methyl)amino)-N-(1,3,4-thiadiazol-2-yl)pyrimidine-4-carboxamide] gave a solubility kinetic at 2 h (physchem [8]; pH 7.4, pH 7.4) greater than 100 µM, an AUC(0-inf) at 24 h (in vivo; iv, 5 mg/kg) of 22.1 µM·h and a clearance at 24 h (in vivo; iv, 5 mg/kg) of 11.1 mL/min/kg. For the same compound, the half-life at 24 h (in vivo; iv, 5 mg/kg) was 5.1 h, the AUC(0-inf) at 24 h (in vivo; po, 20 mg/kg) was 17 µM·h and the half-life at 24 h (in vivo; po, 20 mg/kg) was 4.4 h. The caseum distribution unbound [3] was 0.5%.
